Experimental data as given in ChEMBL document CHEMBL3352043, “Discovery of small-molecule inhibitors selectively targeting the DNA-binding domain of the human androgen receptor” (J Med Chem, 2014).
The source made the active and inactive calls. The calls are words filed in the database; no cut-off is given here.

How the values were obtained:
Androgen receptor [1] = target: T1, Androgen receptor (Homo sapiens, UniProt P10275); experiment: Inhibition of androgen receptor transcriptional activity in human LNCaP cells after 3 days by eGFP assay; assay type: cell-based
T1 sequence (P10275 whole entry): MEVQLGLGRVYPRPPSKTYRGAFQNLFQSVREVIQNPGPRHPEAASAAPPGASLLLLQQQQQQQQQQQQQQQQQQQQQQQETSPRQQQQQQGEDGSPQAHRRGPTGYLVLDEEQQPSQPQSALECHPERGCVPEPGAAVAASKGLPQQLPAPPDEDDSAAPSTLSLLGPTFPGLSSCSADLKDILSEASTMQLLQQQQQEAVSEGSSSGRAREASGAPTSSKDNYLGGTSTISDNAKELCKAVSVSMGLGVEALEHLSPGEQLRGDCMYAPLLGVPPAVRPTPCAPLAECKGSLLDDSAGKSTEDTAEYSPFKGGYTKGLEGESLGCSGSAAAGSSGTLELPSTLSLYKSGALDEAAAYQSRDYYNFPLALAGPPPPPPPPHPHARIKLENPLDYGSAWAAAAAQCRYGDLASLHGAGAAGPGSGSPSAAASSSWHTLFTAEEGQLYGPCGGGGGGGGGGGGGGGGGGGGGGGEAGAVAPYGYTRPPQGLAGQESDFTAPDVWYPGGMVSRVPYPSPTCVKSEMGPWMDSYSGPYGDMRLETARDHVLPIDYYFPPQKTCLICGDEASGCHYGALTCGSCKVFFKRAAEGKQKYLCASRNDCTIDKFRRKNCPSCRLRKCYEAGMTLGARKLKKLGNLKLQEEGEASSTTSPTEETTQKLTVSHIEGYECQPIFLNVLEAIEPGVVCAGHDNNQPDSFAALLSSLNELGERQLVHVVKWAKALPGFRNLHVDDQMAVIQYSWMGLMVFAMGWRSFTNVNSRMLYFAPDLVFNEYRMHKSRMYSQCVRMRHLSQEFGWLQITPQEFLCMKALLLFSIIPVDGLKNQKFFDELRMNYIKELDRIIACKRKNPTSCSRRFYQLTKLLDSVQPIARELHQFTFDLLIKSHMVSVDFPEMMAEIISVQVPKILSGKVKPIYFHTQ

Androgen receptor [2] = target: T1, Androgen receptor; experiment: Inhibition of androgen receptor in human LNCaP cells assessed as inhibition of prostate-specific antigen secretion into media after 3 days; assay type: cell-based
[3] = Growth inhibition of AR-negative human PC3 cells after 3 days by MTS assay; assay type: cell-based; settings: pc-3, 72 h
LNCaP = experiment: Growth inhibition of AR-dependent human LNCAP cells at 0.001 to 3 uM after 3 days by MTS assay; assay type: functional, cell-based
[4] = Stability of the compound in RPMI plus 5% charcoal stripped serum media after 1 hr by MS analysis; assay type: physicochemical

Row | SMILES | IC50 (Androgen receptor [1]) | IC50 (Androgen receptor [2]) | Activity [3] | growth inhibition (GI) (LNCaP) | Stability [4]
1 | c1cc(-c2csc(N3CCOCC3)n2)ccn1 | 2940 nM |  |  |  | 
2 | Oc1ccc2nc(N3CCOCC3)sc2c1 | 7410 nM | 8080 nM |  |  | 
3 | Oc1cc(F)ccc1-c1csc(N2CCOCC2)n1 | 1190 nM | 810 nM |  |  | 
4 | CNc1nc(-c2ccc3ccccc3c2)cs1 | 3170 nM | 3910 nM |  |  | 
5 | Oc1c(F)cccc1-c1csc(N2CCOCC2)n1 | 270 nM | 150 nM |  |  | 
6 | COc1cc(F)ccc1-c1csc(N2CCOCC2)n1 | 300 nM | 230 nM |  |  | 
7 | c1ccc(-c2csc(N3CCOCC3)n2)nc1 | 2580 nM |  |  |  | 
8 | Cc1sc(N2CCOCC2)nc1-c1ccccc1 | 1460 nM |  |  |  | 
9 | Clc1ncn(-c2csc(N3CCOCC3)n2)c1Br | 330 nM | 440 nM |  |  | 
10 | Cc1ncn(-c2csc(N3CCOCC3)n2)c1C | 3560 nM | 2420 nM |  |  | 
11 | c1cc(-c2csc(N3CCOCC3)n2)cs1 | 260 nM | 220 nM |  |  | 
12 | Cc1ccc(C)c(-c2csc(N3CCOCC3)n2)c1 | 620 nM | 520 nM |  |  | 
13 | Clc1c(Br)ncn1-c1csc(N2CCOCC2)n1 | 1450 nM | 1280 nM |  |  | 
14 | Cc1cc(C=Cc2ccc3cc(N(C)C)ccc3[n+]2C)c(C)n1-c1ccccc1.O=C([O-])c1cc2ccccc2c(Cc2c(O)c(C(=O)O)cc3ccccc23)c1O |  |  | Toxic |  | 
15 | c1ccc2nc(-c3ccncc3)ccc2c1 | 4200 nM | 2260 nM |  |  | 
16 | c1ccc(-c2csc(N3CCSCC3)n2)cc1 | 620 nM |  |  |  | 
17 | Oc1c(-c2csc(N3CCOCC3)n2)ccc(F)c1F | 800 nM | 700 nM |  |  | 
18 | FC(F)(F)c1cccc(-c2csc(N3CCOCC3)n2)c1 | 610 nM | 580 nM |  |  | 
19 | Cc1cc(/C=C/c2ccc3cc(N(C)C)ccc3[n+]2C)c(C)n1-c1ccccc1 |  |  |  | inactive | 
20 | c1ccc(-c2cc(N3CCOCC3)cs2)cc1 | 1240 nM | 840 nM |  |  | 
21 | FC(F)(F)[C@H]1CN(c2nc(-c3ccccc3)cs2)CCO1 | 1650 nM | 160 nM |  |  | 
22 | Cc1scc(-c2csc(N3CCOCC3)n2)c1C | 250 nM | 430 nM |  |  | 
23 | Clc1ccc(-c2csc(N3CCOCC3)n2)c(Cl)c1 | 1660 nM | 1320 nM |  |  | 

Row | SMILES | IC50 (Androgen receptor [1]) | IC50 (Androgen receptor [2]) | Activity [3] | growth inhibition (GI) (LNCaP) | Stability [4]
24 | Ic1ncn(-c2csc(N3CCOCC3)n2)c1I | 1730 nM | 1810 nM |  |  | Stable
25 | Oc1ccc(-c2ccc3ccccc3n2)cc1 | 9840 nM |  |  |  | 
26 | Oc1ccc(-c2nc(-c3c[nH]c4ccccc34)cs2)cc1 | 5050 nM | 6460 nM |  |  | 
27 | Nc1ccccc1-c1csc(N2CCOCC2)n1 | 1380 nM | 2030 nM |  |  | 
28 | Fc1ccc(-c2csc(-c3ccncc3)n2)cc1 | 1270 nM |  |  |  | 
29 | Fc1ccc(-c2csc(N3CCOCC3)n2)cc1 | 650 nM | 410 nM |  |  | 
30 | Clc1ncn(-c2csc(N3CCOCC3)n2)c1Cl | 680 nM | 570 nM |  |  | Stable
31 | c1ccc(-c2ccc(N3CCOCC3)s2)cc1 | 520 nM | 510 nM |  |  | 
32 | OCc1sc(N2CCOCC2)nc1-c1ccccc1 | 5040 nM |  |  |  | 
33 | CCc1sc(N2CCOCC2)nc1-c1ccccc1 | 5800 nM | 8430 nM |  |  | 
34 | Clc1cn(-c2csc(N3CCOCC3)n2)cn1 | 960 nM | 720 nM |  |  | 
35 | CS(=O)(=O)c1c(F)cccc1-c1csc(N2CCOCC2)n1 | 3560 nM |  |  |  | 
36 | Fc1ccc(-c2csc(N3CCSCC3)n2)cc1 | 1590 nM |  |  |  | 
37 | COc1c(-c2csc(N3CCOCC3)n2)ccc(F)c1F | 180 nM | 250 nM |  |  | 
38 | c1ccc(-c2csc(N3CCCCC3)n2)cc1 | 1030 nM | 690 nM |  |  | 
39 | Brc1cn(-c2csc(N3CCOCC3)n2)cn1 | 2800 nM | 1740 nM |  |  | 
40 | COc1c(F)cc(O)cc1-c1csc(N2CCOCC2)n1 | 3020 nM |  |  |  | 
41 | Nc1nc(-c2ccc3ccccc3c2)cs1 | 9160 nM | 10600 nM |  |  | 
42 | N#Cc1ccc(-c2ccc(N3CCOCC3)s2)cc1 | 1440 nM | 890 nM |  |  | 
43 | Clc1ccc(-c2csc(N3CCOCC3)n2)cc1Cl | 3320 nM | 2960 nM |  |  | 
44 | c1ccc(-c2csc(-c3ccncc3)n2)cc1 | 1200 nM | 630 nM |  |  | 
45 | Clc1ncn(-c2csc(N3CCOCC3)n2)c1I | 2610 nM | 4020 nM |  |  | 
